Data from ChEMBL document CHEMBL4177748, “Synthesis, structure-activity relationships, and mechanistic studies of 5-arylazo-tropolone derivatives as novel xanthine oxidase (XO) inhibitors” (Bioorg Med Chem, 2018).

Target: Xanthine dehydrogenase/oxidase (Bos taurus, UniProt P80457)
Assay: Inhibition of bovine milk xanthine oxidase using xanthine as substrate pretreated for 15 mins followed by substrate addition measured after 8 mins; call rule not given here

Xanthine dehydrogenase/oxidase, sequence (P80457 whole entry): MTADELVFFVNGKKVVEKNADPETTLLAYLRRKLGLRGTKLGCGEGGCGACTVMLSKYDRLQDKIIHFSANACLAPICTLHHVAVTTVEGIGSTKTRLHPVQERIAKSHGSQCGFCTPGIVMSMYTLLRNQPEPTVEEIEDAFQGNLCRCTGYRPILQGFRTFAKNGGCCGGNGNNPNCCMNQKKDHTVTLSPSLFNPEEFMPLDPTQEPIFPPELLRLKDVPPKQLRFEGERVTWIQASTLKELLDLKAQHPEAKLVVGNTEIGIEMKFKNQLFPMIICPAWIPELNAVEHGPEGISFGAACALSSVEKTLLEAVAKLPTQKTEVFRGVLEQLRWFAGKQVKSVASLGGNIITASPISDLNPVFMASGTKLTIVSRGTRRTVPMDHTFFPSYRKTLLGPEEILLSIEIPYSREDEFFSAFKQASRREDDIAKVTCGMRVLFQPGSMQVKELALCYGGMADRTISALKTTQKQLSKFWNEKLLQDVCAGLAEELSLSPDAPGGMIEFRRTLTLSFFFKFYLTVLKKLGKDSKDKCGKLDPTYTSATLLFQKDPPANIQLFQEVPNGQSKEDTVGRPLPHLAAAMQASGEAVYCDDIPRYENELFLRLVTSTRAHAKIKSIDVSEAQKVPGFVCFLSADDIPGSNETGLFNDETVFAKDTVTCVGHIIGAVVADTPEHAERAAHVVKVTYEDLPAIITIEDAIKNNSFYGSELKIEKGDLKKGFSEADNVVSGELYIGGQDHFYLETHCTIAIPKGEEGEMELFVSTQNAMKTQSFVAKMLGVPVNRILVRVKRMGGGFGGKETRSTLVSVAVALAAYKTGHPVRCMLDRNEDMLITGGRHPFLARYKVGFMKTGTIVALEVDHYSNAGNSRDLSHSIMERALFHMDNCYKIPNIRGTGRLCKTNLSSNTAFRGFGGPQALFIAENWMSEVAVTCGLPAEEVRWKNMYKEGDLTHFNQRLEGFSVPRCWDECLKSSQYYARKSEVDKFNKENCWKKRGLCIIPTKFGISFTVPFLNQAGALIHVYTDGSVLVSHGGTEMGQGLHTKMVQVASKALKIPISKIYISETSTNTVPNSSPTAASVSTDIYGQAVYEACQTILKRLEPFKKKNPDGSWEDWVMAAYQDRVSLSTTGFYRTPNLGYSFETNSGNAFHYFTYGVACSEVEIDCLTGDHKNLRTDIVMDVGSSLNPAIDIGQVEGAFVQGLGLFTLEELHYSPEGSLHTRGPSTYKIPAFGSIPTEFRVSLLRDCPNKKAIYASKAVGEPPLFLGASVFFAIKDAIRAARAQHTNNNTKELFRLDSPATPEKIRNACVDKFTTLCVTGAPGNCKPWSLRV

Row | IC50 | IC50 (read-out: IC50) | Structure (SMILES)
1 | – | 8.9 µM | O=c1ccc(/N=N/c2cccc(F)c2)ccc1O
2 | Not Active | – | O=c1ccc(/N=N/c2ccc(F)cc2)ccc1O
3 | Not Active | – | Cc1ccc(Br)cc1/N=N/c1ccc(O)c(=O)cc1
4 | – | 17 µM | O=c1ccc(/N=N/c2cccc(Cl)c2)ccc1O
5 | Not Active | – | COc1ccc(/N=N/c2cc(C(F)(F)F)cc(C(F)(F)F)c2)ccc1=O
6 | – | 45 µM | COc1cccc(/N=N/c2ccc(O)c(=O)cc2)c1
7 | – | 23 µM | Cc1c(/N=N/c2ccc(O)c(=O)cc2)cccc1[N+](=O)[O-]
8 | Not Active | – | Cc1cc(C)cc(/N=N/c2ccc(O)c(=O)cc2)c1
9 | Not Active | – | CCOC(=O)c1ccc(/N=N/c2ccc(O)c(=O)cc2)cc1

Further lines, the compound ahead of its results:

Row | Structure (SMILES) | IC50 | IC50 (read-out: IC50)
10 | Cc1cccc(/N=N/c2ccc(O)c(=O)cc2)c1 | Not Active | –
11 | COC(=O)c1cccc(/N=N/c2ccc(O)c(=O)cc2)c1 | – | 80 µM
12 | O=c1ccc(/N=N/c2cccc(Br)c2)ccc1O | Not Active | –
13 | COc1cc(/N=N/c2ccc(O)c(=O)cc2)cc(OC)c1OC | – | 57 µM
14 | O=c1ccc(/N=N/c2cccc(C(F)(F)F)c2)ccc1O | – | 7.4 µM
15 | O=c1ccc(/N=N/c2cccc(I)c2)ccc1O | Not Active | –
